Laboratory results from patent US7713994B2 (Wyeth LLC, priority 2005, dated 2010).
pIC50: −log10 of the molar value. Where two headings read alike, the source gives them in different places.

Legend:
[1] = molecular target: T1, cyclin D1/cdk 4 enzyme (Homo sapiens, UniProt P11802); test: CDK4 ELISA kinase assay (phospho-Rb ser 795 detection); assay type: biochemical
T1 construct: made in house; host or cells: Sf9 insect cells, recombinant baculovirus
Procedure, shortened: (§1)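 Sf9-derived cyclin/CDK, 200 μM ATP, immobilized GST-Rb; 30° C/1 h. Detection: phospho-Ser795 Ab, HRP, TMB, OD450.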

[2] = molecular target: T2, cyclin E/CDK2 enzyme (Homo sapiens, UniProt P24941); test: CDK2 ELISA kinase assay (phospho-Rb ser 795 detection); assay type: biochemical
T2 construct: made in house; host or cells: Sf9 insect cells, recombinant baculovirus
Procedure, shortened: as §1

[3] = molecular target: T3, cyclin B/CDK1 enzyme (Homo sapiens, UniProt P06493); test: CDK1 ELISA kinase assay (phospho-Rb ser 795 detection); assay type: biochemical
T3 construct: purchased New England BioLabs; host or cells: Sf9 insect cells, recombinant baculovirus
Procedure, shortened: as §1

[4] = test system: BT474; test: Cytotoxicity assay (SRB), BT474; assay type: cell-based
Procedure, shortened: (§2)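 Cells seeded overnight at 37 °C, 7% CO2 (BT474 12000, HCT-116 4000, LoVo and MCF-7 6000 cells/well) in RPMI 1640 with 5% FBS, then exposed to compound dilutions for 3 days (BT474 6 days). Survival versus untreated controls by TCA fixation and SRB staining, absorbance 540 nm.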

[5] = test system: HCT-116; test: Cytotoxicity assay (SRB), HCT-116; assay type: cell-based; conditions: HCT116 cells, SRB, read-out: In Vitro Cellular Activity IC50 HCT116
Procedure, shortened: as §2

[6] = test system: LoVo; test: Cytotoxicity assay (SRB), LoVo; assay type: cell-based; conditions: LoVo cells, SRB, read-out: In Vitro Cellular Activity IC50 LOVO
Procedure, shortened: as §2

[7] = test system: MCF-7; test: Cytotoxicity assay (SRB), MCF-7; assay type: cell-based; conditions: MCF-7 cells, SRB, read-out: In Vitro Cellular Activity IC50 MCF-7
Procedure, shortened: as §2

[8] = In Vitro Enzyme Assay, cyclin D1/cdk 4, read-out: CDK4 IC50
[9] = In Vitro Enzyme Assay, cyclin E/CDK2, read-out: CDK2 IC50
[10] = In Vitro Enzyme Assay, cyclin B/CDK1, read-out: CDK1 IC50
[11] = Homo sapiens, BT-474, 144 h, BT474 cells, 6 days, SRB; read-out: In Vitro Cellular Activity IC50 BT474
[12] = Homo sapiens, HCT-116, 72 h, 3 days
[13] = Homo sapiens, LoVo, 72 h, 3 days
[14] = Homo sapiens, MCF7, 72 h, 3 days
[15] = BT474 cells, 6 days, SRB; read-out: In Vitro Cellular Activity IC50 BT474
[16] = In Vitro Enzyme Assays, 200 μM ATP, read-out: CDK4 IC50
[17] = In Vitro Enzyme Assays, read-out: CDK2 IC50
[18] = In Vitro Enzyme Assays, read-out: CDK1 IC50
[19] = Homo sapiens, BT-474, 144 h, BT474 cells, SRB, 6 days; read-out: In Vitro Cellular Activity IC50 BT474
[20] = Homo sapiens, HCT-116, 72 h, three days
[21] = Homo sapiens, LoVo, 72 h, three days
[22] = Homo sapiens, MCF7, 72 h, three days

T3 sequence (P06493 whole entry): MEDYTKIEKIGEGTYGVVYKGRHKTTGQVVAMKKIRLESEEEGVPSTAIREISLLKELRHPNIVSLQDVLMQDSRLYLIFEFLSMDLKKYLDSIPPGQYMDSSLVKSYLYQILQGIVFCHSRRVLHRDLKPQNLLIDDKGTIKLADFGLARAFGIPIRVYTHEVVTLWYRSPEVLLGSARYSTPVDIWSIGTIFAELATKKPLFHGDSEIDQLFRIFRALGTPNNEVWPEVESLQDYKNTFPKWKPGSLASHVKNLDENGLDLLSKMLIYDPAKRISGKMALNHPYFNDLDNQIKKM
T3 sequence (P14635 whole entry partner): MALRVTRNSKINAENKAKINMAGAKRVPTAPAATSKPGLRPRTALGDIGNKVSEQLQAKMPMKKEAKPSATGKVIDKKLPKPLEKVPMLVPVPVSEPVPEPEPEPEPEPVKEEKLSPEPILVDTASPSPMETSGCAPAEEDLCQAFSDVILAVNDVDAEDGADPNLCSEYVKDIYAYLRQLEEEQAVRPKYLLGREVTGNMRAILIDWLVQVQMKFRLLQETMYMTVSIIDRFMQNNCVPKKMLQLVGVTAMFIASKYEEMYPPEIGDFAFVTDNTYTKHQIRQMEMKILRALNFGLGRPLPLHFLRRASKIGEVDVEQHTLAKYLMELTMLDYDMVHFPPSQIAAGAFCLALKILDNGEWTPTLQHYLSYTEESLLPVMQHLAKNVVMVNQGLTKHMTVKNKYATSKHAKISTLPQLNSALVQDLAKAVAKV
T1 sequence (P11802 whole entry, species assumed): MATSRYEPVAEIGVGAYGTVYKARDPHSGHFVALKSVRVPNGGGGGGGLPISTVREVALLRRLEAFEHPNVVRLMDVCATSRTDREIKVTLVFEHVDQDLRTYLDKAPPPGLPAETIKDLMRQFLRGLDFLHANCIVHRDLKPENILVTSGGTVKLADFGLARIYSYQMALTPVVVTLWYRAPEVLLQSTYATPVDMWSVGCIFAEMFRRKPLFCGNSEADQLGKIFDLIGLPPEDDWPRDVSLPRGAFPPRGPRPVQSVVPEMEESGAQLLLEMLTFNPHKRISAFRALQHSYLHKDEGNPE
T1 sequence (P24385 whole entry partner, species assumed): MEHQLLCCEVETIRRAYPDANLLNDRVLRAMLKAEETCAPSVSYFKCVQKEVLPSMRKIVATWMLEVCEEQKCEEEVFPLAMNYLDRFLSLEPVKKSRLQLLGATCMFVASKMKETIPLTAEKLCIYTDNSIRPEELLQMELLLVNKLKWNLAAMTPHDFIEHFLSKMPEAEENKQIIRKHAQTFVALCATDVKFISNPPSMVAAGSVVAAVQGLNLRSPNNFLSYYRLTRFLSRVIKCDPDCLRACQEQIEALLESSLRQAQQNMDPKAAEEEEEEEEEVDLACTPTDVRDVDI

Row | Molecule | pIC50 [1, 8] | pIC50 [2, 9] | pIC50 [3, 10] | pIC50 [4, 11] | pIC50 [5, 12] | pIC50 [6, 13] | pIC50 [7, 14] | further results
1 | O=C1NC(=O)c2ccc(C=CCn3ccnc3)cc2C1=CNCc1ccc(O)c(O)c1 [Example 665, 4-[(3,4-Dihydroxy-benzylamino)-methylene]-6-(3-imidazol-1-yl-propenyl)-4H-isoquinoline-1,3-dione] | 6.80 | 5.09 | 4.37 | 4.54 | 4.33 | < 4.30 | 4.89 | 
2 | CC1CCCN1Cc1ccc(NC=C2C(=O)NC(=O)c3ccccc32)cc1 (centres unmarked) [Example 617, 4-{[4-(2-Methyl-pyrrolidin-1-ylmethyl)-phenylamino]-methylene}-4H-isoquinoline-1,3-dione] | 4.78 | 4.67 | < 4.30 | 4.73 | 5.12 | 4.85 | 4.95 | 
3 | CN(C)Cc1cccc(-c2ccc(CN/C=C3\C(=O)NC(=O)c4ccc(I)cc43)cc2O)c1 [Example 519, 4-{[(3′-Dimethylaminomethyl-2-hydroxy-biphenyl-4-ylmethyl)-amino]-methylene}-6-iodo-4H-isoquinoline-1,3-dione] | 8.00 | 5.19 | 4.76 | 5.66 | 6.09 | 5.85 | 6.00 | 
4 | 6-Benzofuran-2-yl-4-[(3,4-dihydroxy-benzylamino)-methylene]-4H-isoquinoline-1,3-dione [Example 643] | 5.46 | < 4.30 | < 4.30 |  |  |  |  | pIC50 [4, 15]: 4.87; pIC50 ([5]; 3 days): 4.83; pIC50 ([6]; 3 days): 4.93; pIC50 ([7]; 3 days): 5.04
5 | COc1ccc(CNC=C2C(=O)NC(=O)c3ccc(C=Cc4ccncc4)cc32)cc1O [Example 824, 4-[(3-Hydroxy-4-methoxy-benzylamino)-methylene]-6-(2-pyridin-4-yl-vinyl)-4H-isoquinoline-1,3-dione] | 8.00 | 4.46 | < 4.30 | < 4.30 | 4.56 | < 4.30 | 4.48 | 
6 | NS(=O)(=O)c1ccc(CNC=C2C(=O)NC(=O)c3ccc(-c4cc5ccccc5s4)cc32)cc1 [Example 635, 4-{[(6-Benzo[b]thiophen-2-yl-1,3-dioxo-2,3-dihydro-1H-isoquinolin-4-ylidenemethyl)-amino]-methyl}-benzenesulfonamide] | 5.92 | 4.71 | 4.77 | 4.43 | 4.63 | < 4.30 | 4.94 | 
7 | (4Z)-6-Piperidin-1-yl-4-({[4-(methylPiperzin-1-yl)phenyl]amino}methylene)isoquinoline-1,3(2H,4H)-dione [Example 119] |  |  |  |  |  |  |  | pIC50 [1, 16]: 5.79; pIC50 [2, 17]: < 4.30; pIC50 [3, 18]: < 4.30; pIC50 ([4]; BT474 cells, SRB, 6 days; read-out: In Vitro Cellular Activity IC50 BT474): 5.12; pIC50 ([5]; three days): 5.48; pIC50 ([6]; three days): 5.14; pIC50 ([7]; three days): 5.21
8 | 6-Bromo-4-[(4-methoxy-phenylamino)-methylene]-1,4-dihydro-2H-isoquinolin-3-one & 8-Bromo-4-[(4-methoxy-phenylamino)-methylene]-1,4-dihydro-2H-isoquinolin-3-one [Example 844] | 4.46 | < 4.30 | < 4.30 |  |  |  |  | pIC50 [4, 15]: 4.57; pIC50 ([5]; 3 days): 4.55; pIC50 ([6]; 3 days): 4.57; pIC50 ([7]; 3 days): 4.58
9 | CC(=O)Nc1ccc(CN/C=C2\C(=O)NC(=O)c3ccc(-c4ccsc4)cc32)cc1O [Example 145, N-[4-({[(Z)-(1,3-Dioxo-6-thien-3-yl-2,3-dihydroisoquinolin-4(1H)-′ylidene)methyl]amino}methyl)-2-hydroxyphenyl]acetamide] |  |  |  |  |  |  |  | pIC50 [1, 16]: 8.40; pIC50 [2, 17]: 5.21; pIC50 [3, 18]: 4.58; pIC50 [4, 19]: < 4.30; pIC50 [5, 20]: 4.49; pIC50 [6, 21]: 4.80; pIC50 [7, 22]: < 4.30
10 | CN1CCN(c2ccc(NC=C3C(=O)NC(=O)c4ccc(-c5ccn(CCCC#N)c5)cc43)cc2)CC1 [Example 855, 4-[3-(4-{[4-(4-Methyl-piperazin-1-yl)-phenylamino]-methylene}-1,3-dioxo-1,2,3,4-tetrahydro-isoquinolin-6-yl)-pyrrol-1-yl]-butyronitrile] | 6.51 | < 4.30 | < 4.30 | 4.36 | < 4.30 | < 4.30 | 4.37 | 
11 | O=C1NC(=O)c2ccc(Br)cc2/C1=C/NCCCCO [Example 211, (4Z)-6-Bromo-4-{[(4-hydroxybutyl)amino]methylene}isoquinoline-1,3(2H,4H)-dione] |  |  |  |  |  |  |  | pIC50 [1, 16]: 5.60; pIC50 [2, 17]: 4.69; pIC50 [3, 18]: 4.42; pIC50 [4, 19]: 4.54; pIC50 [5, 20]: 4.57; pIC50 [6, 21]: 4.32; pIC50 [7, 22]: 4.62
12 | CN1CCN(c2ccc(NC=C3C(=O)NC(=O)c4ccc(-c5ccc6[nH]ccc6c5)cc43)cc2)CC1 [Example 671, 6-(1H-Indol-5-yl)-4-{[4-(4-methyl-piperazin-1-yl)-phenylamino]-methylene}-4H-isoquinoline-1,3-dione] | 5.70 | 4.42 | 4.93 | 5.55 | 5.64 | 5.39 | 5.36 | 
13 | NS(=O)(=O)c1ccc(CNC=C2C(=O)NC(=O)c3ccc(-c4ccc(Cl)cc4)cc32)cc1 [Example 749, 4-({[6-(4-Chloro-phenyl)-1,3-dioxo-2,3-dihydro-1H-isoquinolin-4-ylidenemethyl]-amino}-methyl)-benzenesulfonamide] | 5.83 | 5.10 | 4.41 | < 4.30 | 4.68 | 4.33 | 4.85 | 
14 | CC(=O)c1cccc(-c2ccc3c(c2)C(=CNCc2ccc(O)c(O)c2)C(=O)NC3=O)c1 [Example 776, 6-(3-Acetyl-phenyl)-4-[(3,4-dihydroxy-benzylamino)-methylene]-4H-isoquinoline-1,3-dione] | 6.62 | 4.86 | < 4.30 | 4.76 | 4.82 | 4.99 | 4.95 | 
15 | C=CCN1CCCC1c1ccc(N/C=C2\C(=O)NC(=O)c3ccc(-c4ccsc4)cc32)cc1 (centres unmarked) [Example 420, 4-{[4-(1-Allyl-pyrrolidin-2-yl)-phenylamino]-methylene}-6-thiophen-3-yl-4H-isoquinoline-1,3-dione] |  |  |  | 5.11 | 5.40 | 4.79 | 4.43 | pIC50 [1, 16]: 6.96; pIC50 [2, 17]: < 4.30; pIC50 [3, 18]: < 4.30
16 | O=C1NC(=O)c2ccc(I)cc2/C1=C/NCc1cc(O)c(OCCN2CCCC2)cn1 [Example 522, 4-({[4-Hydroxy-5-(2-pyrrolidin-1-yl-ethoxy)-pyridin-2-ylmethyl]-amino}-methylene)-6-iodo-4H-isoquinoline-1,3-dione] | 6.96 | 5.35 | 4.49 | 5.67 | 5.85 | 5.92 | 6.00 | 
17 | CN(C)c1ccc(-c2ccc3c(c2)C(=CNCc2ccc(O)c(O)c2)C(=O)NC3=O)cc1 [Example 816, 4-[(3,4-Dihydroxy-benzylamino)-methylene]-6-(4-dimethylamino-phenyl)-4H-isoquinoline-1,3-dione] | 6.51 | 4.62 | < 4.30 | 5.40 | 4.94 | 4.99 | 5.00 | 
